The record followed here is patent US20260152487A1 (Sitryx Therapeutics Limited, priority 2021, published 2026).

In this experiment the target is T1, recombinant human PKM2 (Homo sapiens, UniProt P14618).
T1 construct: His (N); purchased R&D Systems
Briefly: Human PKM2 activation assay (Kinase-Glo Plus luminescent detection of generated ATP). Type of experiment: biochemical. Particulars: for Emax: percentage activation normalised to DMSO vehicle (LOW) and 5 μM TEPP-46 (HIGH), read-out: hPKM2 Emax; for EC50: recombinant human PKM2 activation, 4-parameter logistic fit, read-out: hPKM2 EC50. How it is done:
Compound activation of recombinant human PKM2 pyruvate kinase activity was determined by biochemical assay. N-terminal His-tagged hPKM2 was sourced from R&D Systems and its substrates phosphoenolpyruvate (PEP) and ADP from Sigma-Aldrich and 2Bscientific Ltd, respectively. The Kinase-Glo® Plus luminescence assay was from Promega. All other reagents were from Sigma-Aldrich. Test Compounds were prepared as 10 mM DMSO stocks and dilution series prepared in DMSO for direct dilution into Assay Buffer comprising 50 mM imidazole, 50 mM KCl, 7 mM MgCl2, 0.01% Tween20, 0.05% BSA (pH 7.2).
Human PKM2 was diluted into Assay Buffer comprising 50 mM imidazole, 50 mM KCl, 7 mM MgCl2, 0.01% Tween20, 0.05% BSA (pH 7.2) to a final concentration of […]. Enzyme-Assay Buffer mix was dispensed into a 384-well shallow-well white-walled plate (PerkinElmer) and Test Compounds added by acoustic dispense (Echo®, Labcyte Inc.).
After 60 minutes' incubation on an orbital shaker (300 rpm, 26° C.), enzyme activity was quantified by the luminescent detection of generated ATP. Kinase-Glo® Plus reagent was added to each well and the plates incubated for a further 15 minutes on an orbital shaker in the dark (300 rpm, 26° C.) before luminescence measurement on a plate reader (PHERAstar® FSX, BMG Labtech).
Percentage activation was calculated by normalising […] signals to plate LOW (DMSO vehicle) and HIGH (5 μM TEPP-46) controls. EC50 and Emax values were determined from 4-parameter logistic fits of compound concentration-response curves.

T1 sequence (P14618 2-531 limits assumed): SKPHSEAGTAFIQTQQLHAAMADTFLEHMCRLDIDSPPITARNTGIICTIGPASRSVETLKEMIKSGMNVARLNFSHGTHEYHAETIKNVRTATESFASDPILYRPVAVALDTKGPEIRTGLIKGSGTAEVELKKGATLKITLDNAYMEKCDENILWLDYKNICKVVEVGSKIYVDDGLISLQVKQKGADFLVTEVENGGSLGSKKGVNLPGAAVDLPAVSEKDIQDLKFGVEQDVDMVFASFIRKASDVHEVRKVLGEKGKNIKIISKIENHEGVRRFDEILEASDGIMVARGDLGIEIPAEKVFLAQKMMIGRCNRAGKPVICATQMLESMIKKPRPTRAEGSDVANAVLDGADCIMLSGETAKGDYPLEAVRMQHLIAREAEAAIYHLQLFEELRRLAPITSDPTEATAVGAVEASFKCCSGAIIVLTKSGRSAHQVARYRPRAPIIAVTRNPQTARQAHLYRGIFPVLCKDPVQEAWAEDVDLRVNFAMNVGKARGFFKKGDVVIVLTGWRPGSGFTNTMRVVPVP

Turning to `COc1ccc(Cn2ncc3cc(S(=O)(=O)c4cccc(OC)n4)ccc3c2=O)cn1` [Example 160, 6-(6-methoxypyridin-3-yl)methyl)phthalazin-1(2H)-onemethoxypyridin-2-ylsulfonyl)-2-((6-], the Emax (commonly the maximal effect, on the per cent scale that the assay sets) came to 83.3% and the EC50 (commonly the concentration needed to bring the measured effect to its halfway point) is 237 nM.

For the compound `Cc1c(Cl)c(Cn2ncc3cc(S(=O)(=O)c4cn[nH]c4)ccc3c2=O)nn1C` [Example 338], the Emax stood at 96.4% and the EC50 is 24.4 nM.

`Cn1ccc(Cn2ncc3cc(S(=O)(=O)c4cnn(CCO)c4)ccc3c2=O)n1` [Example 264, 6-((1-(2-hydroxyethyl)-1H-pyrazol-4-yl)sulfonyl)-2-((1-methyl-1H-pyrazol-3-yl)methyl)phthalazin-1(2H)-one]: the Emax turned out to be 94.6% and the EC50 worked out at 204 nM.

As to `NC(=O)c1c(Cl)cccc1Cn1ncc2cc(S(=O)(=O)c3ccccc3)ccc2c1=O` [Example 91, 2-chloro-6-((1-oxo-6-(phenylsulfonyl)phthalazin-2(1H)-yl)methyl)benzamide], the Emax worked out at 89.9% and the EC50 amounted to 554 nM.

Take `O=c1c2ccc(S(=O)(=O)c3ccccc3)cc2cnn1Cc1n[nH]cc1CO` [Example 26, 2-((4-(hydroxymethyl)-1H-pyrazol-3-yl)methyl)-6-(phenylsulfonyl)phthalazin-1(2H)-one]: the Emax is 106% and the EC50 was 838 nM.

As for `COc1cccc(Cn2ncc3cc(S(=O)(=O)c4ccccc4)ccc3c2=O)c1C(N)=O` [Example 92, 2-methoxy-6-((1-oxo-6-(phenylsulfonyl)phthalazin-2(1H)-yl)methyl)benzamide], the Emax was determined as 98.9% and the EC50 turned out to be 158 nM.

As to `Nc1cccc(Cn2ncc3cc(S(=O)(=O)c4ccccn4)ccc3c2=O)c1` [Example 144, 2-(3-aminobenzyl)-6-(pyridin-2-ylsulfonyl)phthalazin-1(2H)-one], the Emax was 114% and the EC50 worked out at 144 nM.

In the case of `COc1ccc(Cn2ncc3cc(S(=O)(=O)c4cnc5c(c4)OCCO5)ccc3c2=O)cn1` [Example 130, 6-((2,3-dihydro-[1,4]dioxino[2,3-b]pyridin-7-yl)sulfonyl)-2-((6-methoxypyridin-3-yl)methyl)phthalazin-1(2H)-one], the maximum response (Emax) is 57.1% and the EC50 is 224 nM.

In the case of `N#Cc1c[nH]nc1Cn1ncc2cc(S(=O)(=O)c3ccccc3)ccc2c1=O` [Example 18, 3-((1-oxo-6-(phenylsulfonyl)phthalazin-2(1H)-yl)methyl)-1H-pyrazole-4-carbonitrile], the Emax was 98.5% and the EC50 stood at 841 nM.

For `COc1ccc(Cn2ncc3cc(S(=O)(=O)c4csc(C)n4)ccc3c2=O)cn1` [Example 174, 2-((6-methoxypyridin-3-yl)methyl)-6-(2-methylthiazol-4-ylsulfonyl)phthalazin-1(2H)-one], the Emax is 94.2% and the EC50 was found to be 106 nM.

For the compound `O=c1c2ccc(S(=O)(=O)c3cc[nH]n3)cc2cnn1Cc1ccn(C(F)F)n1` [Example 328], the maximal response (Emax) was 91.5% and the EC50 amounted to 162 nM.

As to `COc1ccc(Cn2ncc3cc(S(=O)(=O)c4ccc5c(c4)CC(C)(C)O5)ccc3c2=O)cn1` [Example 166, 6-((2,2-dimethyl-2,3-dihydrobenzofuran-5-yl)sulfonyl)-2-((6-methoxypyridin-3-yl)methyl)phthalazin-1(2H)-one], the Emax was 99.4% and the EC50 was 131 nM.

Regarding `Cn1ccc(Cn2ncc3cc(S(=O)(=O)c4ccc5c(c4)OCCO5)ccc3c2=O)n1` [Example 215, 6-((2,3-dihydrobenzo[b][1,4]dioxin-6-yl)sulfonyl)-2-((1-methyl-1H-pyrazol-3-yl)methyl)phthalazin-1(2H)-one], the Emax stood at 93.4% and the EC50 amounted to 25.2 nM.

On to `COc1ccc(Cn2ncc3cc(S(=O)(=O)c4ccc5c(c4)CCO5)ccc3c2=O)cn1` [Example 126, 6-((2,3-dihydrobenzofuran-5-yl)sulfonyl)-2-((6-methoxypyridin-3-yl)methyl)phthalazin-1(2H)-one], for which the Emax turned out to be 95.3% and the EC50 came to 18.9 nM.

As for `Cc1coc2ccc(S(=O)(=O)c3ccc4c(=O)n(Cc5cc[nH]n5)ncc4c3)cc12` [Example 220, 2-((1H-pyrazol-3-yl)methyl)-6-((3-methylbenzofuran-5-yl)sulfonyl)phthalazin-1(2H)-one], the Emax came out at 84.7% and the EC50 came to 67.7 nM.

As for `C[C@@H]1Cc2cc(S(=O)(=O)c3ccc4c(=O)n(Cc5ccn(C)n5)ncc4c3)ccc2O1` [Example 217, (R)-2-((1-methyl-1H-pyrazol-3-yl)methyl)-6-((2-methyl-2,3-dihydrobenzofuran-5-yl)sulfonyl)phthalazin-1(2H)-one], the Emax was determined as 115% and the EC50 was determined as 60.2 nM.

In the case of `Cc1nc(Cn2ncc3cc(S(=O)(=O)c4cc[nH]n4)ccc3c2=O)ccc1F` [Example 303], the Emax was 118% and the EC50 is 88.3 nM.

Turning to `COc1ccc(Cn2ncc3cc(S(=N)(=O)c4ccccc4)ccc3c2=O)cn1` (racemic) [Example 131, 2-((6-methoxypyridin-3-yl)methyl)-6-(phenylsulfonimidoyl)phthalazin-1(2H)-one], the Emax amounted to 99.7% and the EC50 was determined as 300 nM.

In the case of `COc1ccc(Cn2ncc3cc(S(=O)(=O)c4cccc(C)n4)ccc3c2=O)cn1` [Example 169, 2-((6-methoxypyridin-3-yl)methyl)-6-(6-methylpyridin-2-ylsulfonyl)phthalazin-1(2H)-one], the Emax came out at 83% and the concentration giving a half-maximal response (EC50) came to 185 nM.

Turning to `COc1cnc(Cn2ncc3cc(S(=O)(=O)c4ccccc4)ccc3c2=O)cn1` [Example 87, 2-((5-methoxypyrazin-2-yl)methyl)-6-(phenylsulfonyl)phthalazin-1(2H)-one], the Emax came out at 85.8% and the EC50 worked out at 475 nM.

With `O=c1c2ccc(S(=O)(=O)c3cn[nH]c3)cc2cnn1Cc1ccc2c(n1)NCCO2` [Example 354], the Emax was 106% and the half-maximal effective concentration (EC50) came out at 23.3 nM.

`Cn1ccc(S(=O)(=O)c2ccc3c(=O)n(Cc4ccccc4C(N)=O)ncc3c2)n1` [Example 210, 2-((6-(1-methyl-1H-pyrazol-3-ylsulfonyl)-1-oxophthalazin-2(1H)-yl)methyl)benzamide]: the Emax was 87.4% and the EC50 is 318 nM.

On to `Cc1cc(Cn2ncc3cc(S(=O)(=O)c4cn[nH]c4)ccc3c2=O)nn1C` [Example 310], for which the Emax was found to be 107% and the EC50 was determined as 153 nM.

For the compound `COC(C)c1nc(S(=O)(=O)c2ccc3c(=O)n(Cc4ccc5occc5n4)ncc3c2)cs1` (stereo not shown) [Example 352], the Emax turned out to be 117% and the EC50 came to 27.5 nM.

On to `O=c1c2ccc(S(=O)(=O)c3ccccc3)cc2cnn1Cc1cc(F)[nH]n1` [Example 111, 2-((5-fluoro-1H-pyrazol-3-yl)methyl)-6-(phenylsulfonyl)phthalazin-1(2H)-one], for which the Emax was 124% and the EC50 was 243 nM.

For `COc1ccc(Cn2ncc3cc([S@](=N)(=O)c4ccc(OC(F)F)cc4)ccc3c2=O)cn1` (single isomer, unassigned) [Example 135], the Emax is 79.9% and the EC50 is 111 nM.

Take `COc1ccc(Cn2ncc3cc(S(=O)(=O)c4ccccc4F)ccc3c2=O)cn1` [Example 162, 6-(2-fluorophenylsulfonyl)-2-((6-methoxypyridin-3-yl)methyl)phthalazin-1(2H)-one]: the Emax was 99.5% and the EC50 worked out at 83.4 nM.

Consider `Cc1cccc(S(=O)(=O)c2ccc3c(=O)n(Cc4cc[nH]n4)ncc3c2)n1` [Example 288, 2-((1H-pyrazol-3-yl)methyl)-6-((6-methylpyridin-2-yl)sulfonyl)phthalazin-1(2H)-one], for which the Emax stood at 93.9% and the EC50 turned out to be 187 nM.

Regarding `COc1ccc(Cn2ncc3cc(S(=O)(=O)c4ccccc4)ccc3c2=O)cc1` [Example 49, 2-(4-methoxybenzyl)-6-(phenylsulfonyl)phthalazin-1(2H)-one], the Emax worked out at 98.2% and the EC50 worked out at 122 nM.

`Cc1cc(S(=O)(=O)c2ccc3c(=O)n(Cc4ccc5c(n4)CCO5)ncc3c2)n[nH]1` [Example 359]: the Emax came out at 112% and the EC50 stood at 24.2 nM.

As to `Cc1cc2cc(S(=O)(=O)c3ccc4c(=O)n(Cc5cc[nH]n5)ncc4c3)ccc2o1` [Example 224, 2-((1H-pyrazol-3-yl)methyl)-6-((2-methylbenzofuran-5-yl)sulfonyl)phthalazin-1(2H)-one], the Emax came to 121% and the concentration giving a half-maximal response (EC50) was 43.6 nM.

Turning to `COc1ccc(Cn2ncc3cc(S(=O)(=O)c4cccc(C(N)=O)c4)ccc3c2=O)cn1` [Example 161, 3-(2-((6-methoxypyridin-3-yl)methyl)-1-oxo-1,2-dihydrophthalazin-6-ylsulfonyl)benzamide], the Emax was found to be 56.8% and the EC50 stood at 211 nM.
